This is an account of results in PubChem BioAssay (NCI).

Among the test systems are 786-0 renal; ACHN renal; COLO 205 colon; DU-145 prostate; HT29 colon; OVCAR-5 ovarian; SNB-75 CNS; SR leukemia.
What all share (test): NCI tumour cell line growth inhibition, 48 h

Molecules are shown by their SMILES. Values joined by “and” are separate entries in the source; they are usually repeats but may differ in a detail not shown here. Identical values can stand only once.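 Growth conditions: 96-well plates. Treatment: test compound, 48 hours, 5 concentrations. Analysis: linear interpolation between bracketing concentrations; unreached endpoints set to highest concentration. GI50: concentration for 50% inhibition of growth. The concentration for full growth arrest is given as TGI.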

`O=C(NO)c1ccc(Cn2c(=O)n(-c3ccccc3)c(=O)c3ccccc32)cc1`: the GI50 was 1.48 µM in the assay with 786-0 renal; 1.67 µM in the assay on ACHN renal; 0.356 µM in the assay with COLO 205 colon; 0.773 µM in the assay with DU-145 prostate; 1.83 µM in the assay on HT29 colon; 1.08 µM in the assay on OVCAR-5 ovarian. Also, the GI50 in the assay on SNB-75 CNS was 1.88 µM; in the assay with SR leukemia, 1.68 µM. Moreover, the TGI in the assay on 786-0 renal was 3.2 µM; in the assay on ACHN renal, 6.37 µM; with COLO 205 colon, 1.39 µM; in the assay with DU-145 prostate it was > 100 µM; with HT29 colon, 47.9 µM; in the assay on OVCAR-5 ovarian, 5.28 µM. Also, the TGI with SNB-75 CNS is 5.35 µM; in the assay on SR leukemia, > 100 µM.
As to `COc1ccc(/C=C\c2cc(OC)c(OC)c(OC)c2)cc1OCC(=O)Nc1nc2ccccc2s1`, the GI50 in the assay on 786-0 renal is 6.23 µM; with ACHN renal, 0.107 µM; in the assay on COLO 205 colon it was 3.26 µM; with DU-145 prostate, 0.14 µM; with HT29 colon it was 2.72 µM; with OVCAR-5 ovarian, 31.9 µM. For the same compound, the GI50 was 0.109 µM with SNB-75 CNS and 0.0363 µM in the assay with SR leukemia. Also, the TGI in the assay on 786-0 renal was > 100 µM; in the assay with ACHN renal, > 100 µM; in the assay on COLO 205 colon it was > 49.5 µM; in the assay on DU-145 prostate, > 100 µM; with HT29 colon, > 48.9 µM; in the assay on OVCAR-5 ovarian it was > 100 µM. The TGI with SNB-75 CNS and with SR leukemia was > 100 µM each time.
For the compound `COc1cc(-c2nc(-c3ccc(-c4nc5ccc(F)cc5[nH]4)cc3)no2)cc(OC)c1OC`, the GI50 was 3.61 µM in the assay on 786-0 renal; 3.72 µM with ACHN renal; 4.77 µM in the assay on COLO 205 colon; 3.96 µM in the assay on DU-145 prostate; 3.69 µM with HT29 colon; 5.59 µM in the assay on OVCAR-5 ovarian. The GI50 is 7.74 µM with SNB-75 CNS and 2.98 µM with SR leukemia. Besides, the TGI in the assay on 786-0 renal was determined as 17.9 µM; in the assay on ACHN renal, 13.6 µM; in the assay with COLO 205 colon it was 17 µM; in the assay with DU-145 prostate it was 15.3 µM; with HT29 colon it was 17.7 µM; in the assay on OVCAR-5 ovarian it was 34.5 µM. The TGI in the assay on SNB-75 CNS is 62.4 µM; in the assay with SR leukemia, > 100 µM.
Turning to `O=c1c2c(=NCCN3CCCC3)cc3c(=O)n(CCCN4CCOCC4)c(=O)c4ccc(c(O)n1CCCN1CCOCC1)c2c4-3`, the GI50 was 0.145 µM in the assay with 786-0 renal; 0.0909 µM in the assay on ACHN renal; 0.165 µM with COLO 205 colon; 0.088 µM with DU-145 prostate; < 0.0181 µM in the assay with HT29 colon; 0.113 µM with OVCAR-5 ovarian. Besides, the GI50 in the assay on SNB-75 CNS is 0.234 µM; with SR leukemia, < 0.0201 µM. Moreover, the TGI in the assay on 786-0 renal amounted to 1.1 µM; in the assay on ACHN renal, 1.51 µM; in the assay with COLO 205 colon it was 0.423 µM; in the assay on DU-145 prostate, 1.67 µM; in the assay with HT29 colon it was 1.04 µM; with OVCAR-5 ovarian, 1.21 µM. For the same compound, the TGI with SNB-75 CNS stood at 1.46 µM; in the assay on SR leukemia it was 5.37 µM.
For `Oc1ccc2ccccc2c1N=Nc1ccc(Cl)cc1`, the TGI with 786-0 renal, with ACHN renal, with COLO 205 colon, in the assay on DU-145 prostate, with HT29 colon and with OVCAR-5 ovarian was > 100 µM in each case. Besides, the TGI in the assay on SNB-75 CNS and with SR leukemia was > 100 µM throughout.
With `O=C(Cc1ccc(Nc2ccnc(C(F)(F)F)c2)cc1)Nc1cc(Cl)ccc1O`, the GI50 in the assay with 786-0 renal was 21.3 µM; in the assay with ACHN renal it was 4.44 µM; in the assay with COLO 205 colon, 21.7 µM; in the assay with DU-145 prostate, 9.27 µM; in the assay on HT29 colon, 21.4 µM; in the assay with OVCAR-5 ovarian it was 17.8 µM. The GI50 in the assay with SNB-75 CNS was 11.9 µM; in the assay on SR leukemia, 2.45 µM. The TGI came out at 58.6 µM with 786-0 renal; 44.2 µM in the assay with ACHN renal; 55.4 µM in the assay on COLO 205 colon; 38.1 µM in the assay with DU-145 prostate; 53.5 µM in the assay on HT29 colon; 52.1 µM in the assay with OVCAR-5 ovarian. Further, the TGI came out at 37.5 µM with SNB-75 CNS and 14.9 µM with SR leukemia.
Take `CCOC(=O)c1ccccc1SC(C[N+](=O)[O-])c1ccccc1` (stereo not drawn): the GI50 in the assay on 786-0 renal is 2.23 µM; in the assay with ACHN renal, 2.02 µM; with COLO 205 colon it was 3.6 µM; with DU-145 prostate it was 5.91 µM; in the assay on HT29 colon it was 2.55 µM; in the assay on OVCAR-5 ovarian it was 12.3 µM. Besides, the GI50 with SNB-75 CNS is 12.7 µM; in the assay on SR leukemia, 2.99 µM. The TGI was 4.97 µM in the assay with 786-0 renal; 4.51 µM in the assay with ACHN renal; 13 µM with COLO 205 colon; 18.4 µM in the assay with DU-145 prostate; 5.72 µM in the assay with HT29 colon; 25.3 µM with OVCAR-5 ovarian. The values for the TGI in the assay with SNB-75 CNS and with SR leukemia were 41.6 µM and 8.97 µM, respectively.
In the case of `Fc1ccc([C@@H]2CCNC[C@H]2COc2ccc3c(c2)OCO3)cc1`, the GI50 was 12.3 µM in the assay on 786-0 renal; 10.8 µM in the assay on ACHN renal; 1.91 µM with COLO 205 colon; 13.1 µM in the assay with DU-145 prostate; 3.52 µM in the assay with HT29 colon; 14.3 µM in the assay on OVCAR-5 ovarian. Also, the GI50 with SNB-75 CNS was 1.32 µM; with SR leukemia, 2.02 µM. The TGI turned out to be 25.7 µM in the assay with 786-0 renal; 24 µM in the assay with ACHN renal; 3.69 µM in the assay on COLO 205 colon; 26.5 µM in the assay with DU-145 prostate; 13.9 µM in the assay on HT29 colon; 28.4 µM with OVCAR-5 ovarian. Besides, the TGI in the assay with SNB-75 CNS was 7.61 µM; in the assay with SR leukemia it was 5.34 µM.
As for `COc1ccc(-c2nc(-c3ccccn3)c(-c3ccccn3)n2CC(C)C)cc1OC1CCCC1`, the GI50 with 786-0 renal is 48.7 µM; in the assay with ACHN renal, 6.92 µM; with COLO 205 colon, 52.2 µM; with DU-145 prostate, 23.3 µM; in the assay on HT29 colon, 35.3 µM; in the assay on OVCAR-5 ovarian, 26.5 µM. The GI50 in the assay on SNB-75 CNS is 24 µM; in the assay with SR leukemia it was 7.77 µM. In addition, the TGI was > 165 µM in the assay on 786-0 renal; > 165 µM with ACHN renal; > 165 µM in the assay with COLO 205 colon; > 165 µM in the assay with DU-145 prostate; 134 µM in the assay with HT29 colon; > 165 µM with OVCAR-5 ovarian. For the same compound, the TGI stood at 123 µM in the assay with SNB-75 CNS and 49.2 µM with SR leukemia.
For `COc1ccc(/C=N\NC(=O)c2ccc3nc(-c4ccc(Cl)cc4)[nH]c3c2)cc1`, the GI50 with 786-0 renal is 1.93 µM; in the assay on ACHN renal it was 2 µM; with COLO 205 colon, 1.94 µM; with DU-145 prostate, 1.98 µM; in the assay with HT29 colon it was 3.09 µM; with OVCAR-5 ovarian, 2.35 µM. For the same compound, the GI50 in the assay with SNB-75 CNS was 1.53 µM; in the assay on SR leukemia, 2.87 µM. Moreover, the TGI in the assay with 786-0 renal amounted to 3.67 µM; with ACHN renal it was 5.04 µM; in the assay with COLO 205 colon it was 5.43 µM; in the assay with DU-145 prostate, 4.61 µM; in the assay on HT29 colon, 22.1 µM; with OVCAR-5 ovarian, 6.89 µM. Besides, the TGI in the assay on SNB-75 CNS was found to be 4.58 µM; in the assay on SR leukemia, 15.4 µM.
Turning to `O=C1NC(=O)[C@@H](c2c[nH]c3ccccc23)[C@@H]1c1c[nH]c2ccccc12`, the GI50 in the assay with 786-0 renal, with ACHN renal, in the assay with COLO 205 colon, with DU-145 prostate, with HT29 colon and with OVCAR-5 ovarian was > 25 µM each time. The GI50 with SNB-75 CNS and with SR leukemia was > 25 µM in each case. Also, the TGI in the assay with 786-0 renal, with ACHN renal, in the assay on COLO 205 colon, with DU-145 prostate, in the assay with HT29 colon and in the assay on OVCAR-5 ovarian was > 25 µM throughout. In addition, the TGI in the assay on SNB-75 CNS and in the assay with SR leukemia was > 25 µM throughout.
For `COc1ccc(C2=N[C@@H](c3ccc(Cl)cc3)[C@@H](c3ccc(Cl)cc3)N2C(=O)N2CCNC(=O)C2)c(OC(C)C)c1`, the GI50 in the assay with 786-0 renal is 14.9 µM and 16.6 µM and 17.3 µM; in the assay on ACHN renal it was 14.6 µM and 3.61 µM and 3.8 µM; with COLO 205 colon, 15 µM and 16.6 µM and 15.8 µM; in the assay with DU-145 prostate, 15.2 µM and 15.8 µM and 16.6 µM; in the assay on HT29 colon, 14.9 µM and 14.4 µM and 14.2 µM; in the assay with OVCAR-5 ovarian it was 17.1 µM and 16.3 µM and 17.3 µM. Moreover, the GI50 in the assay with SNB-75 CNS is 13.4 µM and 11.8 µM and 11.9 µM; in the assay with SR leukemia, 11.7 µM and 2.07 µM and 1.19 µM. Moreover, the TGI in the assay on 786-0 renal was 29 µM and 32.6 µM and 34 µM; in the assay with ACHN renal it was 29.4 µM and 15.1 µM and 16.1 µM; in the assay with COLO 205 colon it was 29.4 µM and 34.6 µM and 32.2 µM; in the assay with DU-145 prostate, 28.7 µM and 29.3 µM and 30.3 µM; in the assay with HT29 colon it was 31.4 µM and 28.2 µM and 29.1 µM; in the assay with OVCAR-5 ovarian it was 34 µM and 32.2 µM and 34.1 µM. In addition, the TGI is 26.5 µM and 25.1 µM and 26.2 µM in the assay on SNB-75 CNS; 36.5 µM and 23.9 µM and 17 µM with SR leukemia.
On to `CCCC(C)c1c(Cl)nc(Cl)nc1Cl` (stereo not drawn), for which the TGI in the assay on 786-0 renal was determined as 12.7 µM; with ACHN renal, 15.5 µM; in the assay with COLO 205 colon, 15.8 µM; in the assay with DU-145 prostate, 28.3 µM; in the assay with HT29 colon it was 26.5 µM; with OVCAR-5 ovarian, 39 µM. The TGI is 27.5 µM in the assay on SNB-75 CNS and > 100 µM with SR leukemia.
`CC[C@H](C)[C@H](NC(=O)NC(C)(C)C)C(=O)N(C)[C@H](C[C@@H](OC(C)=O)c1nc(C(=O)N[C@@H](Cc2ccccc2)C[C@H](C)C(=O)OC)cs1)C(C)C`: the GI50 in the assay on 786-0 renal is 0.609 µM; in the assay with ACHN renal, 1.15 µM; in the assay on COLO 205 colon, 0.446 µM; in the assay on DU-145 prostate, 0.648 µM; in the assay with HT29 colon, 0.324 µM; in the assay on OVCAR-5 ovarian it was 2.4 µM. The values for the GI50 with SNB-75 CNS and in the assay on SR leukemia were 0.293 µM and 0.141 µM, respectively. The TGI with 786-0 renal is 4.59 µM; in the assay with ACHN renal it was > 25 µM; in the assay with COLO 205 colon it was 1.12 µM; with DU-145 prostate it was > 6.3 µM; with HT29 colon, > 8.91 µM; in the assay on OVCAR-5 ovarian, > 25 µM. Moreover, the figures for the TGI in the assay with SNB-75 CNS and in the assay on SR leukemia were > 25 µM and > 11.4 µM, respectively.
